Data as given in US20200129476A1, “PARP Inhibitor in Combination with a Glucocorticoid and/or Ascorbic Acid and/or a Protein Growth Factor for the Treatment of Impaired Wound Healing” (AKRIBES BIOMEDICAL GMBH, priority 2017, published 2020).
“Also recorded” adds a separate entry of the source.

What was measured:
[1] = test system: primary human dermal fibroblasts (HDF); experiment: Primary human dermal fibroblast (HDF) proliferation assay (2D), with or without wound exudate; type: cell-based; details: for HDF proliferation, PARP inhibitor alone: talazoparib 1 μM
Description: (§1) Primary human dermal fibroblasts (HDF) were purchased from CELLnTEC, Bern. They were routinely grown in Dulbecco's modified Eagle's medium (DMEM) containing 10% FCS, 2 mM glutamine, and 100 U/ml penicillin/100 μg/ml streptomycin. Media, antibiotics, and glutamine were bought from Lonza. The cells were used at passage 5-15. Cells were trypsinized and seeded at 5000 cells/well in 200 μl into the inner wells of 96-well plates. The outer wells were loaded with sterile water. The cells were allowed to adhere overnight and then incubated for 72 hours at 37° C. under the following conditions: graded compound concentrations or 20 ng/ml PDGF-BB (Tonbo Biosciences) in the absence or presence of different dilutions of sterile-filtered WE in medium. For control samples, 200p1 medium was added instead of specific stimuli. Alternatively, the cells were seeded into 384-well plates at 2500 cells/well directly together with test compounds or growth factors and WE or medium in a total volume of […].
(§2) At the end of the 72-hour incubation period, supernatants were removed for the determination of IL-1ß, and the cells were fixed with 4% paraformaldehyde (Morphisto) for 15 minutes at room temperature and washed 3 times with PBS. A control plate was fixed after the overnight adherence of the cells (day 1) to determine the starting cell number.
Total cellular protein was determined as a measure of cell number by staining the fixed cells with sulforhodamine B (SRB, Sigma). A 0.4% SRB solution in 1% acetic acid was added to the wells for 30 minutes. The wells were then washed with 1 acetic acid until the wash solution remained colorless. After drying, the dye was eluted with 10 mM Tris.HCl, pH8.5, and absorbance was measured either at 550 or 492 nm for lower and higher cell densities, respectively. The average absorbance of the sample representing the day 1 starting cell number (for 96-well plates) was subtracted from the absorbance values of the WE-treated cells.
All experiments were carried out in triplicate for each sample and concentration, and means±standard deviation (SD) were used for the evaluation of the experiment. Results are expressed as percentage of control values for unstimulated cells.
(§3) Low molecular weight compounds (see list in Table 1) were dissolved in DMSO (Bioreagent for cell culture, Sigma) at 10 mM or 100 mM and diluted at least 1:1000 in medium for cellular assays (final DMSO concentration ≤0.1%).
(§4) Cells were incubated with compounds for 72 hours in proliferation assays and up to 8 days for FDM assay (refreshed after 4 days). When compounds were tested for their effect on WE stimulation, the incubation of cells with compounds was started and ended simultaneously with WE-incubation.

cells = experiment: Titration to reveal potential toxic effects on cells; type: cell-based; details: titrated on cells
Description: Mifepristone, a glucocorticoid and progesterone receptor antagonist, was titrated to reveal potential toxic effects on cells and then used at the well tolerated concentration of 1 μM to counteract glucocorticoid- and progesterone-type compounds (dexamethasone, prednisolone, medroxyprogesterone, etc.). Protein growth factors (see list in Table 1) were dissolved according to the manufacturers' recommendations and used at final concentrations ranging from 0.02 to 1000 ng/ml.

[2] = test system: primary human dermal fibroblasts (HDF); experiment: Fibroblast-derived matrix (FDM) formation assay (3D), with or without wound exudate; type: cell-based; details: for fibroblast-derived matrix (FDM) formation: presence of WE #78 (FIG. 9)
Description: HDF cells were seeded at 5000 cells/well on day −3 into 96-well tissue culture plates (1250 cells/well for 384-well plates), which had been pre-coated for 1 hour at 37° C. with 0.2% gelatin solution (Sigma). When the cells reached confluence (=day 0), a matrix promoting supplement (vitamin C: 2-phospho-L-ascorbic acid trisodium salt, 100 μg/ml; Sigma) was added together with test samples containing PDGF-BB, TGF-ß1 or graded concentrations of compounds −/+WE as described for the HDF proliferation assay. After 4 days, medium was replaced by fresh vitamin C- and stimulus- as well as compound-containing medium, maintaining the conditions initiated on day 0. TGF-ß1 and PDGF-BB were included as positive controls to promote FDM formation and cell growth, respectively. After a total incubation time of 8 days, FDM production was measured in fixed cultures via SRB staining and evaluated as described above. In some cases, the experiment was stopped and evaluated already on day 4.
as §3, with “≤0.1%). Compounds were typically tested in half-logarithmic dilution series (1:3.33), starting at 10 μM or 100 μM as the highest compound concentration.” for “≤0.1%).”
as §4

IL-1ß = IL-1ß secretion by HDF in the presence of wound exudate (ELISA); type: cell-based, human; details: FIG. 22; WE #43 and #78 used with veliparib
Description: as §1, §2
IL-1ß levels were determined with a commercial ELISA kit. The amount of IL-1ß contained in the wound exudate added to the cells was subtracted from the total IL-ß in the supernatants in order to determine the cytokine secreted by the cells.

IL-1α = experiment: Fibroblast-macrophage coculture with wound exudate: IL-1α; type: cell-based, human; details: WE #78; veliparib 10 μM, talazoparib 0.1 μM
Description: CD14^+ monocytes, isolated from PBMC of healthy donors by magnetic bead separation were incubated either alone or in the presence of primary human dermal fibroblasts (CelINTec) or fibroblast-derived matrices (FDM). FDM had been generated from primary human dermal fibroblasts by a 3-week incubation with the growth supplements vitamin C or insulin and EGF (vitamin C: 2-phospho-L-ascorbic acid trisodium salt, 100 μg/ml; human EGF, 5 ng/ml; human insulin, 5 μg/ml). Alternatively, fibroblast monolayer cultures can be used as well. After 4 days to a week to allow for macrophage differentiation in the presence or absence of M-CSF (25 ng/ml), the cultures were stimulated overnight with graded concentrations of test compounds in the absence or presence of various dilutions of sterile-filtered WE. IFN-g (50 ng/ml), LPS (100 ng/ml) and IL-4 (25 ng/ml) or combinations thereof served as controls for M1 and M2 macrophage induction. For negative control samples, medium was added instead of specific stimuli. WE were added to the culture medium for overnight stimulation at dilutions ranging from 1:25 to 1:100.
Supernatants were harvested and frozen for cytokine determination by ELISA, and cells were harvested and subjected to FACS analysis, gating on the monocyte population. Geometric means or mean fluorescence intensities (MFI) were used to quantify surface marker expression. […]

Row | Structure (SMILES) | reversal of glucocorticoid effects on HDF proliferation ([1]; mifepristone as antagonist, WE present) | well tolerated concentration (cells) [µM] | cell proliferation under wound exudate-induced inhibition ([1]; FIG. 22, WE #43 and #78 used with veliparib) | HDF proliferation, PARP inhibitor plus PDGF ([1]; PARP inhibitor dose series + PDGF 20 ng/ml, WE #78 (FIG. 18)) | fibroblast (HDF) proliferation ([1]; presence of WE #43) | fibroblast (HDF) proliferation ([1]; presence of WE #78 (diabetic patient)) | HDF proliferation ([1]; talazoparib 0.3 μM, WE #78 (FIG. 19)) | HDF proliferation, PARP inhibitor plus PDGF ([1]; veliparib 10 μM, talazoparib 1 μM + PDGF 20 ng/ml, WE #78 (FIG. 17B)) | HDF proliferation, PARP inhibitor alone ([1]; veliparib 10 μM, WE #78 (FIG. 17B)) | HDF proliferation, PARP inhibitor alone ([1]; veliparib 10 μM, absence of WE (FIG. 17A)) | fibroblast-derived matrix (FDM) formation [2] | fibroblast-derived matrix (FDM) formation ([2]; listed as Talazoparib) | fibroblast-derived matrix (FDM/ECM) formation ([2]; presence of wound exudate, WE not specified (FIG. 6: microscopy)) | IL-1ß secretion induced by wound exudate (IL-1ß) | IL-1α induced by wound exudate (IL-1α)
1 | CC#C[C@]1(O)CC[C@H]2[C@@H]3CCC4=CC(=O)CCC4=C3[C@@H](c3ccc(N(C)C)cc3)C[C@@]21C [mifepristone, Mifepristone] | reversible | 1 | – | – | – | – | – | – | – | – | – | – | – | – | –
2 | Cn1ncnc1[C@H]1c2n[nH]c(=O)c3cc(F)cc(c23)N[C@@H]1c1ccc(F)cc1 [talazoparib] | – | – | enhanced cell proliferation | even further enhanced by the addition of PDGF | strongly beneficial effects | strongly beneficial effects; also recorded: dose-dependent increase of HDF proliferation | rescues the cells from the inhibitory effect of the WE; also recorded: rescued the cells from the inhibitory effect of the wound exudate | additively or synergistically enhanced by PDGF | induce proliferation | no or even an inhibitory effect on fibroblasts on their own | strong positive effect | most active of the PARP inhibitors tested in 3D culture | “cleaned up” WE-induced fibroblast matrix inhibition | reducing IL-1ß secretion | reduced
